One assay has as its system SNU-354. The assay is described as follows: In vitro cytotoxic activity against SNU-354(liver cancer cell) by using SRB assay after 72 hr of drug exposure. The class given is functional, cell-based. Conditions: Homo sapiens, SNU-354, 72 h. On the technique in general: The SRB assay estimates cell density from bound dye.
Another assay has as its system SNU1. The assay is described as follows: In vitro cytotoxic activity against SNU-1(stomach cancer cell) by using SRB assay after 72 hr of drug exposure. Conditions: Homo sapiens, SNU1, 72 h. The class given is functional, cell-based.
Assay [1] relates to MCF7. The assay is described as follows: In vitro cytotoxic activity against subline resistant to doxorubicin (MCF-7/R) by using SRB assay after 72 hr of drug exposure. The class given is functional, cell-based. The conditions noted are these: Homo sapiens, MCF7, 72 h.
Assay [2] concerns MCF7. The assay is described as follows: In vitro cytotoxic activity against human breast cancer cells (MCF-7) by using SRB assay after 72 hr of drug exposure. The assay is classed as functional, cell-based. The conditions noted are these: MCF7, 72 h.
Assay [3] in a line: Resistance index expressed as the ratio of IC50 of resistant cell line (MCF-7/R) to IC50 of sensitive cell line (MCF-7). The class given is functional.

≈ marks a conversion by molar mass, not a printed value. Bounds are passed on as bounds.

On to `CC(C)NC(=O)OCc1cnc2c(c1)C(=O)c1ccccc1C2=O`, for which the IC50 was over 20 mg/L with SNU-354, over 20 mg/L with SNU1, over 100 mg/L in the assay with MCF7 [1] and over 100 mg/L in the assay on MCF7 [2].
In the case of `CC(=O)OCc1cnc2c(c1)C(=O)c1ccccc1C2=O`, the half-inhibitory concentration (IC50) with SNU-354 amounted to 11.8 mg/L (≈ 42 µM); in the assay with SNU1, 8.4 mg/L (≈ 29.9 µM); with MCF7 [1] it was 49.9 mg/L (≈ 177 µM); in the assay on MCF7 [2] it was 6.7 mg/L (≈ 23.8 µM). Moreover, the Resistance index in assay [3] worked out at 7.4.
The matching figures for `O=C1c2ccccc2C(=O)c2ncc(CBr)cc21`: 0.89 mg/L (≈ 2.95 µM), 0.56 mg/L (≈ 1.85 µM), 3.08 mg/L (≈ 10.2 µM), 2.49 mg/L (≈ 8.24 µM) and 1.2.
The matching figures for `Cc1cnc2c(c1)C(=O)c1ccccc1C2=O`: over 20 mg/L, 13.9 mg/L (≈ 62.3 µM), 69.1 mg/L (≈ 309 µM), 18.3 mg/L (≈ 82.1 µM) and 3.8.
For `O=C1c2ccccc2C(=O)c2ncc(CO)cc21` the same measures were 4.5 mg/L (≈ 18.8 µM), 8.1 mg/L (≈ 33.9 µM), 17.7 mg/L (≈ 74.1 µM), 6.66 mg/L (≈ 27.8 µM) and 2.7.
Take `O=C(Nc1ccccc1)OCc1cnc2c(c1)C(=O)c1ccccc1C2=O`: the half-inhibitory concentration (IC50) was 15.2 mg/L (≈ 42.4 µM) in the assay on SNU-354, 14.9 mg/L (≈ 41.6 µM) in the assay with SNU1, 57.3 mg/L (≈ 160 µM) in the assay on MCF7 [1] and 4.58 mg/L (≈ 12.8 µM) in the assay with MCF7 [2]. Also, the Resistance index in assay [3] is listed as 12.5.
For `COc1cccc2c1C(=O)c1c(O)c3c(c(O)c1C2=O)C[C@@](O)(C(=O)CO)C[C@@H]3O[C@H]1C[C@H](N)[C@H](O)[C@H](C)O1` [DOXORUBICIN], the IC50 in the assay on SNU-354 amounted to 0.54 mg/L (≈ 0.994 µM); in the assay with SNU1, 0.27 mg/L (≈ 0.497 µM).

In general, IC50 refers to the point on the concentration scale where inhibition reaches its midpoint. High values mean weaker potency in that assay, low ones greater potency in that assay.
